Assay results from ChEMBL document CHEMBL1125153, “Structure-activity correlations for psychotomimetics. 1. Phenylalkylamines: electronic, volume, and hydrophobicity parameters” (1990).

Experiments:
Assay type in all cases: functional
[1] = organism: Homo sapiens; experiment: Log value of hallucinogenic activity was determined
[2] = organism: Homo sapiens; experiment: Hallucinogenic activity i.e; ratio of effective dose of mescaline to the effective dose in human
[3] = system: Rattus norvegicus; experiment: Effective dose in rats trained on 1 mg/kg DOM.

Row | SMILES | Log activity [1] | Activity [2] [MU] | ED50 [3] [mg/kg]
1 | CCCOc1cc(CCN)cc(OC)c1OC | -0.301 | <1 | 
2 | COc1ccc(CCN)c(OC)c1OC | -0.301 | <1 | 
3 | CCOc1c(OC)cc(CCN)cc1SC | 0.778 | 6 | 
4 | CCOc1cc(CCN)cc(SCC)c1OCC | -0.301 | <1 | 
5 | CCOc1cc(CCN)cc(OC)c1SCC | 0.602 | 4 | 
6 | CCSc1c(OC)cc(CCN)cc1OC | 1.301 | 20 | 
7 | COc1c(CC(C)N)ccc2c1OCO2 (stereo not drawn) | 1 | 10 | 
8 | COc1cc(CCN)cc(OC)c1OC [MESCALINE] | 0 | 1 | 14.6
9 | CCOc1cc(CCN)cc(OCC)c1OCC | -0.301 | <1 | 
10 | COc1cc(CC(C)N)cc2c1OCO2 (stereo not drawn) | 0.431 | 2.7 | 3.66
11 | CCOc1c(OC)cc(CCN)cc1SCC | 0.301 | 2 | 
12 | CCc1cc(OC)c(CC(C)N)cc1OC (stereo not drawn) | 2 | 100 | 0.23
13 | COc1cc(OC)c(OC)cc1CC(C)N (stereo not drawn) | 1.301 | 20 | 
14 | COc1cc(SC)c(OC)cc1CC(C)N (stereo not drawn) | 1.602 | 40 | 
15 | COc1cc(CC(C)N)c(OC)cc1CC(C)C (stereo not drawn) | 1.301 | 20 | 
16 | COc1c(CC(C)N)cc2c(c1OC)OCO2 (stereo not drawn) | 0.699 | 5 | 
17 | COc1cc(CCN)cc(OC)c1SC | 1.079 | 12 | 
18 | COc1ccc(CC(C)N)c2c1OCO2 (stereo not drawn) | 0.477 | 3 | 
19 | COc1cc(CCN)cc(SC)c1OC | 0.778 | 6 | 
20 | NCCc1ccc2c(c1)OCO2 | 0 | 1 | 
21 | COc1ccc(CC(C)N)c(OC)c1OC (stereo not drawn) | 0.301 | 2 | 7.8

Row | SMILES | Log activity [1] | Activity [2] [MU] | ED50 [3] [mg/kg]
22 | CCOc1cc(CCN)cc(SC)c1OCC | 0.301 | 2 | 
23 | CCOc1cc(CCN)cc(SCC)c1OC | -0.301 | <1 | 
24 | COc1cc(OC)c(OC)cc1CCN | -0.301 | <1 | 
25 | CCCSc1c(OC)cc(CCN)cc1OC | 1.204 | 16 | 
26 | COc1cc(CC(C)N)c(OC)c(OC)c1 (stereo not drawn) | 0.602 | 4 | 16.5
27 | COc1cc(CC(C)N)cc(OC)c1OC (stereo not drawn) | 0.301 | 2 | 6.34
28 | COc1cc(CC(C)N)cc(C)c1OCc1ccccc1 (stereo not drawn) | 0.301 | 2 | 
29 | COc1cc2c(cc1CC(C)N)OCO2 (stereo not drawn) | 1 | 10 | 
30 | COc1cc(OC)c(CC(C)N)c(OC)c1 (stereo not drawn) | 1 | 10 | 3.69
31 | CCCCOc1c(OC)cc(CCN)cc1OC | 0.301 | 2 | 
32 | COc1ccc(OC)c(CC(C)N)c1 (stereo not drawn) | 0.903 | 8 | 5.51
33 | COc1ccc(CC(C)N)cc1 (stereo not drawn) [PARA-METHOXYAMPHETAMINE] | 0.699 | 5 | 
34 | CCCOc1cc(OC)c(CC(C)N)cc1OC (stereo not drawn) | 1.301 | 20 | 
35 | CCOc1cc(CCN)cc(SC)c1OC | -0.301 | <1 | 
36 | CCCCCc1cc(OC)c(CC(C)N)cc1OC (stereo not drawn) | 1 | 10 | 
37 | COc1cc(CC(C)N)c(OC)c(OC)c1OC (stereo not drawn) | 0.778 | 6 | 
38 | CCCCSc1c(OC)cc(CCN)cc1OC | 0.477 | 3 | 
39 | CCOc1cc(CCN)cc(OC)c1OC | 0 | 1 | 
40 | CCCOc1c(OC)cc(CCN)cc1OC | 0.778 | 6 | 
41 | COc1cc(SC(C)C)c(OC)cc1CC(C)N (stereo not drawn) | 1.602 | 40 | 
42 | CCCc1cc(OC)c(CC(C)N)cc1OC (stereo not drawn) | 1.903 | 80 | 0.17

Row | SMILES | Log activity [1] | Activity [2] [MU] | ED50 [3] [mg/kg]
43 | CCOc1cc(CCN)cc(OCC)c1OC | -0.301 | <1 | 
44 | CCCCc1cc(OC)c(CC(C)N)cc1OC (stereo not drawn) | 1.602 | 40 | 0.91
45 | COc1ccc(OC)c(OC)c1CC(C)N (stereo not drawn) | 1 | 10 | 
46 | CCc1cc(OC)c(CCN)cc1OC | 1.255 | 18 | 
47 | CCOc1cc(CCN)cc(OC)c1OCC | 0.176 | 1.5 | 
48 | COc1cc(CCN)c(OC)cc1C | 1.301 | 20 | 1.31
49 | COc1cc(CC(C)N)c(OC)c2c1OCO2 (stereo not drawn) | 1.079 | 12 | 
50 | COc1ccc(CC(C)N)cc1OC (stereo not drawn) | -0.301 | 0.5 | 
51 | COc1cc(CC(C)N)c(OC)cc1C (stereo not drawn) [DOM] | 1.903 | 80 | 0.44
52 | CCOc1cc(CCN)cc(OCC)c1SCC | -0.301 | <1 | 
53 | COc1ccc(CC(C)N)c(OC)c1 (stereo not drawn) | 0.699 | 5 | 4.88
54 | COc1ccc(CCN)cc1 | -0.301 | <1 | 
55 | CCSc1cc(CCN)cc(OC)c1OC | 0.778 | 6 | 
56 | CCOc1c(OC)cc(CCN)cc1OC | 0.845 | 7 | 
57 | COc1ccc2c(c1CC(C)N)OCO2 (stereo not drawn) | 1 | 10 | 
58 | CCOc1cc(CCN)cc(OC)c1SC | 0.602 | 4 | 
59 | CCOc1cc(CCN)cc(OCC)c1SC | -0.301 | <1 | 
60 | COc1ccc(CCN)cc1OC | -1 | <0.2 | 
61 | CCOc1cc(OC)c(CC(C)N)cc1OC (stereo not drawn) | 1.301 | 20 | 
62 | CC(N)Cc1ccc2c(c1)OCO2 (stereo not drawn) [TENAMFETAMINE] | 0.477 | 3 | 1.68
